From PMC12374581 (European journal of medicinal chemistry, 2025)
“And” between values parts separate entries of the source, which are not always exact repeats. Equal values may be shown once. Read-outs that look alike come from different tables or passages of the source.

Columns and labels:
[1] = target: human μ opioid receptor (OPRM1) (Homo sapiens, UniProt P35372); assay: cell-based; assay type: cell-based; details: for Emax: OPRM1, read-out: MOR cAMP %Emax ± SEM
[2] = target: human μ opioid receptor β-arrestin-2 (Homo sapiens, UniProt P35372); assay: cell-based; details: for Emax: read-out: β-Arrestin Recruitment %Emax ± SEM
Sequence of human μ opioid receptor β-arrestin-2 (P35372 whole entry): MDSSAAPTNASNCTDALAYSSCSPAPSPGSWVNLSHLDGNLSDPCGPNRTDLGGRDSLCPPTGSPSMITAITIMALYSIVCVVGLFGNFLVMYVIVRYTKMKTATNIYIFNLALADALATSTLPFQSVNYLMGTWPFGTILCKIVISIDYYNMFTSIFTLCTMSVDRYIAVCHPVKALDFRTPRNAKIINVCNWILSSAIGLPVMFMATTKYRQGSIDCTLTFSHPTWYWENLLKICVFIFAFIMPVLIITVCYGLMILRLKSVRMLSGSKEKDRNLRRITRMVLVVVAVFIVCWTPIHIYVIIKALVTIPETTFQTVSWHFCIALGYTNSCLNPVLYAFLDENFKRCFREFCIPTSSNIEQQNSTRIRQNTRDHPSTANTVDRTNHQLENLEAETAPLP

in vitro [3] = details: mouse, microsomes
in vitro [4] = details: human, microsomes
[5] = target: human δ opioid receptor (OPRD1) (Homo sapiens, UniProt P41143); assay: cell-based; assay type: cell-based; details: for Emax: read-out: DOR cAMP Emax ± SEM (%)
Sequence of human δ opioid receptor (OPRD1) (P41143 whole entry): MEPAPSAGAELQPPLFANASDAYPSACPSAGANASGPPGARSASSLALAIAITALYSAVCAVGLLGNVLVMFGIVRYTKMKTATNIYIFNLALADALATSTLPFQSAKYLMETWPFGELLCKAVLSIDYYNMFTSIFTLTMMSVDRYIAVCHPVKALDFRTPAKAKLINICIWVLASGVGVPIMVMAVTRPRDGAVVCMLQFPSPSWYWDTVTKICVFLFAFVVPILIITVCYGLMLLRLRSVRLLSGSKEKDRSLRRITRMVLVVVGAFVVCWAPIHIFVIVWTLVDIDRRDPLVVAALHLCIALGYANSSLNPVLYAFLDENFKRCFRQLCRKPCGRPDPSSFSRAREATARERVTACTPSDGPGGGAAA

B6129/F1 hybrid mice [6] = assay: Naloxone pre-treatment antagonist study in hot plate test; assay type: in vivo, mouse; details: naloxone 10 mg/kg pretreatment, agonist 10 mg/kg
[7] = target: nociceptin receptor (OPRL1) (Homo sapiens, UniProt P41146); assay: cell-based; assay type: cell-based; details: for Emax: read-out: NOR cAMP Emax ± SEM (%)
Sequence of nociceptin receptor (OPRL1) (P41146 whole entry): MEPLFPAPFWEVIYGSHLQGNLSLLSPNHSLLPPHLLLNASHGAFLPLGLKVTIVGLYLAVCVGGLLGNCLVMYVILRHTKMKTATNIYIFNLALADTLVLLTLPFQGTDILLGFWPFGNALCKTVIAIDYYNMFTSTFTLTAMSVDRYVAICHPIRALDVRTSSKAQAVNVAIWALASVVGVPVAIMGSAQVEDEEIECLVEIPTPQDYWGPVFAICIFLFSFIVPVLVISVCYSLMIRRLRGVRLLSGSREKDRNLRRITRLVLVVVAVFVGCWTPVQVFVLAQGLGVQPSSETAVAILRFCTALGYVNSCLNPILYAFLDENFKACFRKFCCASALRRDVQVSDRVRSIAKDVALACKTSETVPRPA

[8] = target: κ opioid receptor (OPRK1) (Homo sapiens, UniProt P41145); assay: cell-based; details: for Emax: read-out: KOR cAMP Emax ± SEM (%)
Sequence of κ opioid receptor (OPRK1) (P41145 whole entry): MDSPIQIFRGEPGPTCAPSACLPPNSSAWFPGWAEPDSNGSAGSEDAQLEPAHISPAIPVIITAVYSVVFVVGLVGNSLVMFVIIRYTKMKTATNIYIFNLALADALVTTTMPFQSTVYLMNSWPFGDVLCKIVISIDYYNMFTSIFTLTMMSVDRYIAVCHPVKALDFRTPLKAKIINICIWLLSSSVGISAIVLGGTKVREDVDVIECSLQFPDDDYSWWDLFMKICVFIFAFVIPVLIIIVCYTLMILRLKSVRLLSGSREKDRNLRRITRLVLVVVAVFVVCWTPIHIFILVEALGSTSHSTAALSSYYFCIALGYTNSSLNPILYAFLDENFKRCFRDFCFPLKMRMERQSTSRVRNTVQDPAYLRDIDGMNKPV

B6129/F1 hybrid mice [9] = assay: Hot plate test; assay type: in vivo, mouse; details: for ED50: Mus musculus, read-out: ED50 (antinociception, hot plate); for in vivo agonist profile (antinociception): hot plate, mice; for in vivo agonist profile (antinociception) / Emax (maximal possible effect at the highest dose, hot plate): i.p.; for Emax (maximal possible effect at the highest dose, hot plate): cumulative doses, B6129/F1 mice, nonlinear regression
[10] = Solubility observed for in vivo dosing
[11] = read-out: β-Arrestin Recruitment EC50

Sequence of human μ opioid receptor (OPRM1) (P35372 whole entry): as the sequence (P35372 whole entry) above

Compound | EC50 [1] | Emax [1] | EC50 [2] | Emax [2] | EC50 [2, 11] | Emax [5] | Emax [7] | also measured
Oc1ccc(N2C3CCC2CN(CCCc2ccccc2)C3)cc1 [Compound 1, 4-(3-(3-Phenylpropyl)-3,8-diazabicyclo[3.2.1]octan-8-yl)phenol] | 0.25 µM | 58.7 ± 5.8% | > 10 µM | 0% | > 10 µM |  |  | fold reduction in MOR cAMP potency compared to atoxifent [1]: 700 fold
OCc1cccc(N2C3CCC2CN(CCCc2ccccc2)C3)c1 [Compound 3, (3-(3-(3-Phenylpropyl)-3,8-diazabicyclo[3.2.1]octan-8-yl)phenyl)methanol] | 0.02 µM | 102 ± 1.1% |  |  |  |  |  | 
CC(C)(O)c1cccc(N2C3CCC2CN(CCCc2ccccc2)C3)c1 [Compound 4, 2-(3-(3-(3-Phenylpropyl)-3,8-diazabicyclo[3.2.1]octan-8-yl)phenyl)propan-2-ol] | 0.25 µM | 107.8 ± 0.9% |  |  |  |  |  | fold decrease in MOR cAMP activity compared to 3 [1]: 12 fold
OC1(c2cccc(N3C4CCC3CN(CCCc3ccccc3)C4)c2)COC1 [Compound 5, 3-(3-(3-(3-Phenylpropyl)-3,8-diazabicyclo[3.2.1]octan-8-yl)phenyl)oxetan-3-ol] | 0.063 µM | 102.6 ± 0.5% |  |  |  |  |  | 
Oc1cc(Cl)cc(N2C3CCC2CN(CCCc2ccccc2)C3)c1 [Compound 6, 3-Chloro-5-(3-(3-phenylpropyl)-3,8-diazabicyclo[3.2.1]octan-8-yl)phenol] | 0.02 µM | 99.6 ± 1.1% |  |  |  |  |  | 
Oc1cc(F)cc(N2C3CCC2CN(CCCc2ccccc2)C3)c1 [Compound 8, 3-Fluoro-5-(3-(3-phenylpropyl)-3,8-diazabicyclo[3.2.1]octan-8-yl)phenol] | 0.00079 µM | 99.9 ± 0.6% | > 10 µM | 0% | > 10 µM |  |  | half-life (in vitro [3]): 3.3 min; half-life (in vitro [4]): 26.6 min
FC(F)c1cccc(N2C3CCC2CN(CCCc2ccccc2)C3)c1 [Compound 9, 8-(3-(Difluoromethyl)phenyl)-3-(3-phenylpropyl)-3,8-diazabicyclo[3.2.1]octane] | 0.013 µM | 102.6 ± 1% | > 10 µM |  | > 10 µM |  |  | 
O=[N+]([O-])c1cccc(N2C3CCC2CN(CCCc2ccccc2)C3)c1 [Compound 10, 8-(3-Nitrophenyl)-3-(3-phenylpropyl)-3,8-diazabicyclo[3.2.1]octane] | 0.01 µM | 100.6 ± 0.4% | > 10 µM | 0% | > 10 µM |  |  | 
Nc1cccc(N2C3CCC2CN(CCCc2ccccc2)C3)c1 [Compound 11, 3-(3-(3-Phenylpropyl)-3,8-diazabicyclo[3.2.1]octan-8-yl)aniline] | 0.00025 µM | 104 ± 2.4% | > 10 µM | 0% | > 10 µM | 71.1 ± 3.6% | 0% | half-life (in vitro [3]): 3.5 min; EC50 [5]: 0.0016 µM; effect of naloxone pretreatment on antinociceptive effects (B6129/F1 hybrid mice [6]): antagonized by naloxone; half-life (in vitro [4]): 36.5 min; EC50 ([7]; NOR cAMP EC50 (nM)): > 10000 nM; EC50 ([7]; NOR cAMP pEC50± SEM): > 10000 nM; EC50 [8]: > 10 µM; Emax [8]: 0%; ED50 (B6129/F1 hybrid mice [9]; ip): 0.849 mg/kg; in vivo agonist profile (antinociception) (B6129/F1 hybrid mice [9]): partial agonists; Emax (maximal possible effect at the highest dose, hot plate) (B6129/F1 hybrid mice [9]): 43.86 % MPE and 44 % MPE; solubility (in words) [10]: poorly soluble
O=S(=O)(Nc1cccc(N2C3CCC2CN(CCCc2ccccc2)C3)c1)C1CC1 [Compound 12, N-(3-(3-(3-Phenylpropyl)-3,8-diazabicyclo[3.2.1]octan-8-yl)phenyl)cyclopropane-sulfonamide] | 0.0005 µM | 98.8 ± 0.4% | 0.025 µM | 4.3 ± 0.2% |  | 71 ± 4.7% | 0% | half-life (in vitro [3]): 6.4 min; EC50 [5]: 0.0016 µM; effect of naloxone pretreatment on antinociceptive effects (B6129/F1 hybrid mice [6]): antagonized by naloxone; half-life (in vitro [4]): 35.6 min; EC50 ([7]; NOR cAMP EC50 (nM)): > 10000 nM; EC50 ([7]; NOR cAMP pEC50± SEM): > 10000 nM; EC50 [8]: > 10 µM; Emax [8]: 0%; ED50 (B6129/F1 hybrid mice [9]; ip): 2.8 mg/kg; in vivo agonist profile (antinociception) (B6129/F1 hybrid mice [9]): partial agonists; Emax (maximal possible effect at the highest dose, hot plate) (B6129/F1 hybrid mice [9]): 33.45 % MPE and 33 % MPE; solubility (in words) [10]: poorly soluble
NC(=O)c1cccc(N2C3CCC2CN(CCCc2ccccc2)C3)c1 [Compound 13, 3-(3-(3-Phenylpropyl)-3,8-diazabicyclo[3.2.1]octan-8-yl)benzamide] |  | 101.8 ± 0.3% |  | 7.5 ± 1.3% | 0.016 µM | 81.3 ± 3% | 0% | MOR cAMP pEC50±SEM [1]: 9.6 ± 0.1; EC50 ([1]; read-out: MOR cAMP EC50): 0.00025 µM; half-life (in vitro [3]): 14.2 min; DOR cAMP pEC50±SEM [5]: 8.0 and 8.0 ± 0.2; EC50 ([5]; read-out: DOR cAMP EC50): 0.01 µM; effect of naloxone pretreatment on antinociceptive effects (B6129/F1 hybrid mice [6]): antagonized by naloxone; half-life (in vitro [4]): 92.7 min; NOR cAMP pEC50± SEM [7]: < 5.0; EC50 ([7]; read-out: NOR cAMP EC50): > 10000 nM; KOR cAMP pEC50± SEM [8]: < 5.0; EC50 ([8]; read-out: KOR cAMP EC50): > 10 µM; Emax [8]: 0%; ED50 (B6129/F1 hybrid mice [9]; ip): 0.658 mg/kg; in vivo agonist profile (antinociception) (B6129/F1 hybrid mice [9]): partial agonists; Emax (maximal possible effect at the highest dose, hot plate) (B6129/F1 hybrid mice [9]): 31.91 % MPE and 32 % MPE; solubility (in words) [10]: readily soluble; β-Arrestin Recruitment pEC50 ± SEM [2]: 7.8 ± 0.1
NC(=O)c1ccccc1N1C2CCC1CN(CCCc1ccccc1)C2 [Compound 14, 2-(3-(3-Phenylpropyl)-3,8-diazabicyclo[3.2.1]octan-8-yl)benzamide] | 0.0032 µM | 101.6 ± 0.6% | 0.7 µM | 26.5 ± 2.4% |  |  |  | fold decrease in MOR cAMP activity compared to 13 [1]: ~14 fold
NC(=O)c1ccc(N2C3CCC2CN(CCCc2ccccc2)C3)cc1 [Compound 15, 4-(3-(3-Phenylpropyl)-3,8-diazabicyclo[3.2.1]octan-8-yl)benzamide] | > 10 µM |  |  |  |  |  |  | EC50 ([1]; read-out: MOR cAMP EC50): > 10 µM
NC(=O)c1cc(N2C3CCC2CN(CCCc2ccccc2)C3)ccc1O [Compound 16, 2-Hydroxy-5-(3-(3-phenylpropyl)-3,8-diazabicyclo[3.2.1]octan-8-yl)benzamide] | 0.004 µM | 60.9 ± 3.9% | > 10 µM | 0% | > 10 µM | 34.8 ± 3% | 0% | half-life (in vitro [3]): 2.1 min; EC50 [5]: 0.016 µM; half-life (in vitro [4]): 13 min; agonist activity at NORs (in words) [7]: no agonist activity; EC50 ([7]; NOR cAMP EC50 (nM)): > 10000 nM; EC50 ([7]; NOR cAMP pEC50± SEM): > 10000 nM
NC(=O)c1cc(N2C3CCC2CN(CCCc2ccccc2)C3)ccc1F [Compound 18, 2-Fluoro-5-(3-(3-phenylpropyl)-3,8-diazabicyclo[3.2.1]octan-8-yl)benzamide] | 0.01 µM | 100.2 ± 0.5% | > 10 µM |  | > 10 µM | 56.2 ± 6.2% | 41.9 ± 19.3% | EC50 [5]: 0.16 µM; EC50 ([7]; NOR cAMP EC50 (nM)): 25 nM; EC50 ([7]; NOR cAMP pEC50± SEM): 25.1 nM
NC(=O)c1cccc(N2C3CCC2CN(CCCc2ccccc2)C3)c1F [Compound 19, 2-Fluoro-3-(3-(3-phenylpropyl)-3,8-diazabicyclo[3.2.1]octan-8-yl)benzamide] | 0.0025 µM | 101.2 ± 0.6% | > 10 µM | 0% | > 10 µM | 71.4 ± 1.8% | 19.5 ± 3.4% | EC50 [5]: 0.013 µM; EC50 ([7]; NOR cAMP EC50 (nM)): 3.2 nM; EC50 ([7]; NOR cAMP pEC50± SEM): 3.16 nM
c1ccc(CCCN2CC3CCC(C2)N3c2cccc(-c3ncco3)c2)cc1 [Compound 20, 2-(3-(3-(3-Phenylpropyl)-3,8-diazabicyclo[3.2.1]octan-8-yl)phenyl)oxazole] | 0.32 µM | 100 ± 0.1% |  |  |  |  |  | 
C[C@@H](NC(=O)[C@@H](N)Cc1ccc(O)cc1)C(=O)NCC(=O)N(C)[C@@H](Cc1ccccc1)C(=O)NCCO [DAMGO, reference compound] |  |  |  | 102.3 ± 0.2% |  |  |  | 
Buprenorphine [reference compound] |  |  |  |  |  |  |  | ED50 (antinociception, hot plate) (B6129/F1 hybrid mice [9]; mouse, in vivo, ip): 0.6441 mg/kg
